Measured values reported in US10227323B2, “Glucosylceramide synthase inhibitors for the treatment of diseases” (BIOMARIN PHARMACEUTICAL INC., priority 2013, dated 2019).

molecular target: T1, GCS (Canis lupus familiaris, UniProt A0A8I3MXG6); assay: Assay 1: GCS Enzymatic Assay (MDCK cell lysate, C6-NBD-Ceramide, LC/MS); type: biochemical, canine; conditions: Table 2; data marked by *
T1 sequence (A0A8I3MXG6 1-394): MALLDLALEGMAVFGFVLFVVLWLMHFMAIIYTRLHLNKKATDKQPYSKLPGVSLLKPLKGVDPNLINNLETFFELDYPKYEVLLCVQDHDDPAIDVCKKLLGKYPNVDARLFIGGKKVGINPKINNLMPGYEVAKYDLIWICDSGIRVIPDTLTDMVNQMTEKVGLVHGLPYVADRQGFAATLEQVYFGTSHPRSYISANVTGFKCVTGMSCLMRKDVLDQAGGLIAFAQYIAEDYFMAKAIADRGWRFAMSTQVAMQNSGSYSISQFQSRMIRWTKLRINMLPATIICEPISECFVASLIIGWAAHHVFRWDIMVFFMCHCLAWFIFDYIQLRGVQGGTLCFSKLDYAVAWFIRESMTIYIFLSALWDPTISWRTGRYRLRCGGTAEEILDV
Method in brief: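 LC/MS/MS measurement of glucosylceramide and NBD-ceramide after a 1 h, 37 °C reaction with 100 μM UDP-glucose and 10 μM C6-NBD-ceramide gave IC50s or percent inhibition.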

SMILES	% inhibition generated from Assay 1
O=C(N[C@H](CN1CCCC1)[C@H](O)c1cc(F)c2c(c1)OCCO2)C(F)(F)c1csc(-c2ccc(F)cc2)n1 [Compound 221, 2,2-difluoro-N-((1R,2R)-1-(8-fluoro-2,3-dihydrobenzo[b][1,4]dioxin-6-yl)-1-hydroxy-3-(pyrrolidin-1-yl)propan-2-yl)-2-(2-(4-fluorophenyl)thiazol-4-yl)acetamide]	A* (the compound had a % inhibition of a percent inhibition of greater than or equal to about 50%)
O=C(N[C@H](CN1CCCC1)[C@H](O)c1ccc(OC2CC2)c(Cl)c1)C(F)(F)c1cnc(-c2ccc(F)cc2)s1 [Compound 222, N-((1R,2R)-1-(3-chloro-4-cyclopropoxyphenyl)-1-hydroxy-3-(pyrrolidin-1-yl)propan-2-yl)-2,2-difluoro-2-(2-(4-fluorophenyl)thiazol-5-yl)acetamide]	B* (the compound had a % inhibition of greater than or equal to about 3% but less than about 50%)
Cn1ncc2cc(C(=O)C(=O)N[C@H](CN3CCCC3)[C@H](O)c3ccc(OC4CC4)c(Cl)c3)ccc21 [Compound 224, N-((1R,2R)-1-(3-chloro-4-cyclopropoxyphenyl)-1-hydroxy-3-(pyrrolidin-1-yl)propan-2-yl)-2-(1-methyl-1H-indazol-5-yl)-2-oxoacetamide]	A* (the compound had a % inhibition of a percent inhibition of greater than or equal to about 50%)
O=C(N[C@H](CN1CCCC1)[C@H](O)c1ccc(OC2CC2)c(Cl)c1)C(=O)c1ccc2sc(Cl)cc2c1 [Compound 225, N-((1R,2R)-1-(3-chloro-4-cyclopropoxyphenyl)-1-hydroxy-3-(pyrrolidin-1-yl)propan-2-yl)-2-(2-chlorobenzo[b]thiophen-5-yl)-2-oxoacetamide]	B* (the compound had a % inhibition of greater than or equal to about 3% but less than about 50%)
O=C(N[C@H](CN1CCCC1)[C@H](O)c1cc(F)c2c(c1)OCCO2)C(=O)c1csc(-c2ccc(F)cc2)n1 [Compound 226, N-((1R,2R)-1-(8-fluoro-2,3-dihydrobenzo[b][1,4]dioxin-6-yl)-1-hydroxy-3-(pyrrolidin-1-yl)propan-2-yl)-2-(2-(4-fluorophenyl)thiazol-4-yl)-2-oxoacetamide]	B* (the compound had a % inhibition of greater than or equal to about 3% but less than about 50%)

same assay, conditions: Table 2; data without asterisk; read-out: IC50 (nM) generated from Assay 1

SMILES	IC50 [nM]
Cn1ncc2cc(-c3ccc(C(=O)C(=O)N[C@H](CN4CCCC4)[C@H](O)c4cc(F)c5c(c4)OCCO5)cc3)ccc21 [Compound 220, N-((1R,2R)-1-(8-fluoro-2,3-dihydrobenzo[b][1,4]dioxin-6-yl)-1-hydroxy-3-(pyrrolidin-1-yl)propan-2-yl)-2-(4-(1-methyl-1H-indazol-5-yl)phenyl)-2-oxoacetamide]	< 50
Cn1ncc2cc(-c3ccc(C(=O)C(=O)N[C@H](CN4CCC4)[C@H](O)c4cc(F)c5c(c4)OCCO5)cc3)ccc21 [Compound 223, N-((1R,2R)-3-(azetidin-1-yl)-1-(8-fluoro-2,3-dihydrobenzo[b][1,4]dioxin-6-yl)-1-hydroxypropan-2-yl)-2-(4-(1-methyl-1H-indazol-5-yl)phenyl)-2-oxoacetamide]	< 50
O=C(N[C@H](CN1CCC1)[C@H](O)c1cc(F)c2c(c1)OCCO2)C(=O)c1ccc(N2CCCCC2)cc1 [Compound 227, N-((1R,2R)-3-(azetidin-1-yl)-1-(8-fluoro-2,3-dihydrobenzo[b][1,4]dioxin-6-yl)-1-hydroxypropan-2-yl)-2-oxo-2-(4-(piperidin-1-yl)phenyl)acetamide]	< 50
O=C(N[C@H](CN1CCCC1)[C@H](O)c1cc(F)c2c(c1)OCCO2)C(=O)c1ccc(-c2ccccn2)cc1 [Compound 228, N-((1R,2R)-1-(8-fluoro-2,3-dihydrobenzo[b][1,4]dioxin-6-yl)-1-hydroxy-3-(pyrrolidin-1-yl)propan-2-yl)-2-oxo-2-(4-(pyridin-2-yl)phenyl)acetamide]	< 50
